We go through one compound from patent publication US9169251B2, “Pyrrolopyridine derivatives and their use as CRTH2 antagonists” (Novartis AG, priority 2004, dated 2015).

In general, Ki refers to a dissociation constant, usually derived from enzyme kinetics or from competition with a known ligand. A lower Ki goes with higher affinity.

In this assay the target is T1, CRTh2 receptor (Homo sapiens, UniProt Q9Y5Y4).
T1 construct: expressed in transfected cells; host or cells: CHO.K1 (Chinese Hamster Ovary) cells, line CHO.K1-CRTh2
T1 sequence (Q9Y5Y4 1-395): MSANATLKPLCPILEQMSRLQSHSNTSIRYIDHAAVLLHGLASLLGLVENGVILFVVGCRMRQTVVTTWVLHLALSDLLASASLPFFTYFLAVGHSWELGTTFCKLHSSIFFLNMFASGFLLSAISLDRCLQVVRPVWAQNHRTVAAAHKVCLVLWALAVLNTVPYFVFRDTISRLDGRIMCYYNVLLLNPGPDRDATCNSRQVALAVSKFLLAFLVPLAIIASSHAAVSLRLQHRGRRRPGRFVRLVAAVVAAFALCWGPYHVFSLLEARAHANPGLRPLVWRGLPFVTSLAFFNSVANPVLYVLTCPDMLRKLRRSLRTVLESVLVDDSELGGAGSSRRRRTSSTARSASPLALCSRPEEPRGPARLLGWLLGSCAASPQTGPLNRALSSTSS
Description: Filtration binding assay: competition with [3H]-PGD2 on CHO.K1-CRTh2 membranes (called SPA binding assay). Conditions: [3H]-PGD2 2.5 nM. The procedure: Filtration Binding Assay Protocol
The binding of CRTh2 antagonists is determined using membranes prepared from human CRTh2-expressing Chinese Hamster Ovary cells (CHO.K1-CRTh2). To produce cell membranes CHO.K1-CRTh2 cells cultured in roller bottles are harvested using cell dissociation buffer (Invitrogen). The cells are pelleted by centrifugation (167 g, 5 min). […] At 4° C. cells are homogenized using a Polytron® (IKA Ultra Turrax T25) for 5 bursts of 1 second.
The binding of [^3H]-PGD2 (157 Ci/mmol) to CHO.K1-CRTh2 membranes is determined in the absence (total binding) and presence (non-specific binding) of unlabelled PGD2 (1 μM). Subtraction of the cpm (counts per minute) of [^3H]-PGD2 binding in presence of excess unlabelled PGD2 from that observed in the absence of excess unlabelled PGD2 is defined as specific binding. […]
The plates are incubated at room temperature on a shaker for 1 hour, and then harvested (Tomtec Harvester 9600) onto GF/C filter plates using wash buffer (10 mM HEPES-KOH, pH 7.4). […] Plates are then counted using a Packard Top Count instrument, Plates are then read on the Packard Topcount with the 3H Scintillation program (1 min per well). […]
Ki values are determined using Sigma Plot™ software, using the Cheng-Prussoff equation. […]

In the case of `Cc1c(CC(=O)O)c2cccnc2n1Cc1ccc(S(C)(=O)=O)cc1C(F)(F)F` [Example 95, [1-(4-Methanesulfonyl-2-trifluoromethyl-benzyl)-2-methyl-1H-pyrrolo[2,3-b]pyridin-3-yl]-acetic acid], the affinity, expressed as Ki, was 4 nM.
